Assay results taken from the supplement of paper PMC10307832.

Experiments:
Experiment in all cases: relative viability (nuclei count vs DMSO), 5 days (fraction); higher = more cells survive
Veliparib + Trametinib = compound: C[C@]1(c2nc3c(C(N)=O)cccc3[nH]2)CCCN1 [Veliparib] + CC(=O)Nc1cccc(-n2c(=O)n(C3CC3)c(=O)c3c(Nc4ccc(I)cc4F)n(C)c(=O)c(C)c32)c1 [Trametinib] (partner 0.02 µM)
Summary of the method: (§1)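 Values are medians from duplicate plates. Each reflects relative viability, defined as the nuclei count of treated wells over that of vehicle wells. Lung cancer cell lines in 1536-well plates were pin-tool dosed one day after seeding with one drug alone or with a fixed anchor-drug dose plus five library-drug doses (not always all listed) in √10 steps, then fixed, stained and imaged at 4× after 5 days.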

Veliparib + Foretinib = compound: C[C@]1(c2nc3c(C(N)=O)cccc3[nH]2)CCCN1 [Veliparib] + COc1cc2c(Oc3ccc(NC(=O)C4(C(=O)Nc5ccc(F)cc5)CC4)cc3F)ccnc2cc1OCCCN1CCOCC1 [Foretinib] (partner 0.25 µM)
Summary of the method: as §1

Veliparib + Pictilisib = compound: C[C@]1(c2nc3c(C(N)=O)cccc3[nH]2)CCCN1 [Veliparib] + CS(=O)(=O)N1CCN(Cc2cc3nc(-c4cccc5[nH]ncc45)nc(N4CCOCC4)c3s2)CC1 [Pictilisib] (partner 1 µM)
Summary of the method: as §1

[1] = compound: COC1=CC=C(C=C1)CN2C=CC3=C2C=C(C=C3)C(=O)NO + Cc1nc(Nc2ncc(C(=O)Nc3c(C)cccc3Cl)s2)cc(N2CCN(CCO)CC2)n1 [Dasatinib] (partner 0.075 µM)
Summary of the method: as §1

Cell Line	relative viability (Veliparib + Trametinib; first compound 0.02 µM)	relative viability (Veliparib + Trametinib; first compound 0.06325 µM)	relative viability (Veliparib + Trametinib; first compound 0.2 µM)	relative viability (Veliparib + Trametinib; first compound 0.6325 µM)	relative viability (Veliparib + Trametinib; first compound 2 µM)	relative viability (Veliparib + Foretinib; first compound 0.02 µM)	relative viability (Veliparib + Foretinib; first compound 0.06325 µM)	relative viability (Veliparib + Foretinib; first compound 0.2 µM)	relative viability (Veliparib + Foretinib; first compound 0.6325 µM)	relative viability (Veliparib + Foretinib; first compound 2 µM)	relative viability (Veliparib + Pictilisib; first compound 0.02 µM)	relative viability (Veliparib + Pictilisib; first compound 0.06325 µM)	relative viability (Veliparib + Pictilisib; first compound 0.2 µM)	relative viability (Veliparib + Pictilisib; first compound 0.6325 µM)	relative viability (Veliparib + Pictilisib; first compound 2 µM)	relative viability ([1]; first compound 0.253 µM)	relative viability ([1]; first compound 0.8 µM)	relative viability ([1]; first compound 2.53 µM)	relative viability ([1]; first compound 8 µM)	relative viability ([1]; first compound 0.08 µM)
NCI-H2228	0.362	0.57	0.597	0.523	0.368	0.794	0.731	0.845	0.737	0.957	0.464	0.538	0.378	0.463	0.425	0.458	0.662	0.497	0.413	
COR-L 105	0.448	0.463	0.475	0.432	0.468	1.17	1	1.1	1.07	0.943	0.364	0.388	0.351	0.391	0.56	0.32	0.35	0.323	0.237	0.287
RERF-LC-KJ	0.938	0.822	0.899	0.845	0.858	0.881	0.807	0.879	0.888	0.889	0.59	0.529	0.592	0.563	0.454	0.867	0.761	0.829	0.751	0.839
NCI-H647	0.502	0.451	0.483	0.478	0.481	1.35	1.15	1.29	1.15	0.977	0.347	0.368	0.436	0.447	0.265	0.198	0.179	0.186	0.186	0.126
ChaGo-K-1	0.673	0.842	0.923	0.857	0.905	0.874	0.873	0.845	0.784	0.923		0.55	0.86	0.914	0.718	0.589	0.631	0.584	0.486	
NCI-H358	0.0965	0.12	0.195	0.115	0.152	0.723	0.647	0.623	0.625	0.573		0.37	0.38	0.315	0.342	0.152	0.192	0.157	0.126	
LK-2	0.773	0.773	0.788	0.763	0.766		1.26	1.32	1.13	1.15		0.486	0.618	0.607	0.625	0.358	0.335	0.298	0.293	
NCI-H460	0.185	0.0956	0.1	0.109	0.202	0.994	0.909	0.952	0.948	0.983	0.349	0.335	0.325	0.347	0.377	0.556	0.553	0.48	0.343	0.545
SK-LU-1	0.561	0.519	0.607	0.524	0.415	0.874	0.756	0.899	0.644	0.902	0.624	0.573	0.483	0.585	0.536	0.154	0.198	0.21	0.164	0.161
LU99A	0.552	0.536	0.566	0.537	0.571	0.75	0.744	0.752	0.663	0.721	0.349	0.279	0.296	0.278	0.323	0.606	0.649	0.711	0.439	
UMC-11	0.7	0.759	0.707	0.682	0.635	1.29	0.959	0.998	0.948	1.02	0.779	0.891	0.817	0.876	0.883	0.454	0.422	0.471	0.44	
NCI-H1650	0.335	0.374	0.58	0.497	0.508		0.895	1.35	0.98	1.17		0.507	0.61	0.519	0.566	0.292	0.317	0.351	0.254	0.342
PC-3 [JPC-3]	0.596		0.749	0.685	0.682	1.01	1.06	0.968	0.975	0.983	0.774	0.689	0.774	0.69	0.758	0.974	1.06	1.13	1.03	0.986
A-427	0.792	0.727	0.801	0.722	0.875		0.936	0.991	0.981	1.11	0.676	0.734	0.675	0.632	0.625	0.75	0.769	0.669	0.503	
HCC-366	0.375	0.312	0.384	0.327	0.42	0.987	0.813	0.891	0.809	0.934	0.114	0.15	0.122	0.152	0.15	0.639	0.658	0.526	0.574	0.483
